Results published in a melting point compilation (Tetko et al.; mined from patent text by program, amines drawn as free bases though some values may be those of a salt).

melting point [°C] | Compound
73.5 to 75 | CCCCCCCCCCCCCCC(CCCCCCCCCCCCCC)C(=O)O
> 300 | O=c1[nH]c(CO)nc2nc(O)cnc12
164 to 165 | COC(=O)c1nc(-c2ccc(Br)c(OC)c2F)cc(NC(C)=O)c1Cl
110 | Oc1ccc(N=C(C=COc2ccccc2)Oc2ccccc2)cc1
280 to 282 | CCCc1nc2nc3cc(Cl)ccc3nc2[nH]1
119 to 122 | Oc1cccc2c1c1ccccc1n2Cc1ccccc1
85 to 93 | Cc1ccc2c(Cl)cc(I)c(O)c2n1
113 to 120 | CNC(=O)c1sc(C(C)(C)C)cc1NC(=O)Nc1ccc(C(C)C)cc1
211 | CN1CCCC(C(=O)OC2c3ccccc3C(=O)N2c2ccc3ccc(Cl)nc3n2)C1 (configuration not stated)
96 to 99 | O[C@@H](COc1cccc(-c2noc3ccsc23)c1)CN1CCN(c2ccccc2F)CC1
79 to 83 | CCn1c(=O)sc2cc(C(c3ccc([N+](=O)[O-])cc3)n3cncn3)ccc21 (configuration not stated)
122 to 124 | CN1CCC2(CC1)OC(c1ccc(Cl)cc1)C1CCCCN12 (configuration not stated)
73 to 74.5 | Cn1cc(Cl)c2cccc(C(=O)c3ccccc3)c21
125 to 126 | COc1cccc(OC)c1CN1CCC(=O)C(C(c2ccc(F)cc2)c2ccc(F)cc2)C1 (configuration not stated)
126 to 128 | Cc1cc2c(s1)N(C)c1ccccc1N=C2N1CCN(C)CC1
130 | Nc1ccc2ccc(-c3ccc(Cl)cc3)nc2n1
129 to 132 | CN(C)c1ccc(CNC(=O)c2ccccc2O)cc1
188 | Cn1c(CC(=O)O)ccc1C(=O)c1ccc(Br)cc1

melting point [°C] | Compound
91 to 93 | COC(=O)c1ccc(/C=C(\C)c2ccc3c(c2)N(C)CCN3C)cc1
> 60 | CCCCN(Cc1ccc(-c2ccccc2S(=O)(=O)NC(=O)c2ccccc2Cl)cc1)C(=O)N(C)c1ccccc1C(F)(F)F
> 300 | O=c1[nH]c2cc(Cl)ccc2c(O)c1-c1ccc(Cl)cc1
> 300 | O=C(O)c1nc2cc(-n3ccnc3)c([N+](=O)[O-])cc2[nH]c1=O
146 to 150 | O=C1CC(c2ccccc2)NC(=O)C1C(=O)c1ccccc1[N+](=O)[O-] (configuration not stated)
294 | Cc1nc2sccn2c1C1=NNC(=O)OC1
78 to 81 | Cc1cc(/C=C/CC(C)N(C)C(=O)OC(C)(C)C)cnc1N (configuration not stated)
236 to 238 | NC(=O)Cn1cc2c(n1)CN=C(c1ccccc1)c1cc(Cl)ccc1-2
199 to 201 | CC(=O)Oc1ccc([C@@H]2SC(C)(C)[C@H](C(=O)O)N2C(C)=O)cc1
92.4 to 93.8 | CCCCc1nc(C)c(CC(=S)N2CCC2)c(=O)n1Cc1ccc(-c2ccccc2-c2nnn[nH]2)cc1
42 to 44 | CCC(=C(c1ccccc1)c1ccc(C2CC2C(=O)N(CC)CC)cc1)c1ccccc1 (configuration not stated)
105 | O=C(O)CCCCCCCCCCCCCCCCC(=O)n1nnc2ccccc21
206 to 209 | NC(=O)c1ccccc1Nc1ccncc1
172 to 173 | CCOC(=O)c1cc2c(nc(C)n2C)c2c1CCC(c1ccccc1)O2 (configuration not stated)
75 to 77 | CCOC(=O)C(C#N)(CCCN(C)CCc1ccc(C(=O)OC)cc1)c1ccc(OC)c(OC)c1 (configuration not stated)
> 250 | CNC(=O)Nc1nc2c(s1)C(C)(C)CC(C)(C)C2
92.5 | CC(C)(C)C1=NN(c2ccc(S(=O)(=O)O)cc2)C(c2ccc(Cl)cc2)C1 (configuration not stated)

Further lines, the molecule ahead of its results:

Compound | melting point [°C]
O=Cc1ccc(CBr)c(Cl)c1 | 64 to 66
CN(C)CCCC1CCN(C=Nc2ccc3c(c2)C(=O)c2ccc(N=CN4CCC(CCCN(C)C)CC4)cc2C3=O)CC1 | 171 to 174
N#Cc1sc(C#N)c(Br)c1Br | 138 to 139
Nc1cc(C(=O)O)cc(S(N)(=O)=O)c1Oc1ccc(OCc2ccccc2)cc1 | 264 to 265
Cn1cnc(C(=O)N2CCC(NC(=O)Nc3ccc(C(F)(F)F)cc3)CC2)c1 | 222 to 226
Nc1sc2c(c1C(=O)c1ccc(Cl)cc1)CCN(CCCc1ccccc1)C2 | 98 to 100
FC(F)(F)c1ccc(-c2nccc(Oc3cccc(C(F)(F)F)c3)n2)cc1 | 66 to 67
CC(=O)OCC1OC(n2cc(C(Cl)=CI)c(=O)[nH]c2=O)CC1OC(C)=O (configuration not stated) | 81 to 83
CSc1nnc2n1C=Cc1cc(C)ccc1C2 | 161 to 162
CNC(=O)c1ccc(O[C@H]2CC[C@@H](NC(=O)Nc3ccc(OC(F)(F)F)cc3)CC2)cc1 | 207 to 208
NC(C=Cc1ccccc1)=NO | 85 to 87
Cc1ccc(CCCCCCCCCCC(Cl)(Cl)C(=O)O)cc1 | 58 to 59
Clc1cc(-c2ccncc2)ccn1 | 193 to 196
CCOC(=O)C(O)c1cc(Br)cn1CCOC(C)=O (configuration not stated) | 59
Cc1ccc(S(=O)(=O)NC(=O)OCCc2ccc(-n3c(CCCc4ccccn4)nc4cc(C(F)(F)F)c(Cl)cc43)cc2)cc1 | 193
CCCCCCCCCCCC/C(=C\C=C\C(=O)O)c1ccc(OC)cc1 | 85 to 88
CC1=NN(C)C(=O)C1(Cl)C(=O)c1cc(C)ccc1[N+](=O)[O-] (configuration not stated) | 110 to 111
CCOCn1c(C(N)=O)c(OC(C)C)c2cc(OC)ccc21 | 110 to 112
O=C(O)CCC(Cc1ccc(Cl)c(Cl)c1)(C(=O)C=Cc1ccc(Cl)cc1)c1ccccc1 (configuration not stated) | 155 to 156

Compound | melting point [°C]
CCCCN(CCCC)C(=S)C(=S)N(CCCC)CCCC | 35 to 38
CCOC(=O)c1cc2c(O)nncc2nc1Nc1ccccc1 | 257 to 260
OCc1ccc(N2CCN(Cc3ccc4ccccc4n3)CC2)cc1 | 126 to 127
CCOc1cc(C2CC=CN(C(=O)c3ccc(NC(=O)OCCCN(C)C)cc3)N2)ccc1OC (configuration not stated) | 193
COc1c(C)cc(NC(=O)C(C)(C)C)cc1C | 126 to 128
Cc1c(F)c(F)cc2c(=O)c(C(=O)O)cn(-c3nc(N)c(F)cc3F)c12 | 274 to 277
NC(=O)c1cccc(OCc2ccccc2)c1 | 136 to 140
O=c1[nH]nc2n1C=Cc1ccccc1C2c1ccccc1 (configuration not stated) | 258 to 260
O=C1Nc2cc(C(F)(F)F)ccc2N2CCN(CCc3ccccn3)CC12 (configuration not stated) | 194 to 196
Cc1cn2cccc(OCc3c(Cl)ccc(S(=O)(=O)N4CCC[C@H]4C(=O)NCCCNC(=O)c4ccc(C#N)cc4)c3Cl)c2n1 | 100 to 102
C=CC(=O)Nc1ccc2c(Nc3cccc(C)c3)ncnc2c1 | 270
O=S1(=O)c2ccccc2N(c2ccccn2)c2ccccc21 | 184 to 188
Cc1nc(-c2ccc3c(=O)n(CC(C)C)c(CNC(=O)OC(C)(C)C)c(-c4ccccc4)c3c2)sc1C(=O)O | 184 to 186
CC(C)Cn1c(CC(C)O)nc2c(N)nc3ccccc3c21 (configuration not stated) | 196 to 198
O=c1[nH]c2c(Cl)cc(Cl)cc2c(=O)n1CCCN1CC=C(c2ccc(Cl)cc2)CC1 | 197 to 199
COc1ccc2nc(Sc3ccc4c(c3)CC[C@H]3N(C)C(=O)CC[C@]43C)sc2c1 | 102 to 107
COc1ccc(-c2sc3cc(O)ccc3c2Oc2ccc(OCCN3CCCCC3)cc2)cc1 | 157
CS(=O)(=O)Nc1cc(F)c(Cl)cc1I | 123 to 124
